Data published in patent publication US20140336187A1, “METHODS FOR TREATING LEISHMANIASIS” (HOWARD UNIVERSITY, priority 2011, published 2014).
“And” between values parts separate entries of the source, which are not always exact repeats. Identical values can stand only once. Like-named read-outs stand apart in the source and are kept apart here.

How the values were obtained:
[1] = test system: L. donovani promastigotes; assay: Antileishmanial activity on L. donovani promastigotes (resazurin cell viability assay); assay type: cell-based, Leishmania donovani; conditions: for IC50: resazurin assay, 0.03 to 44 μM, means ± S.E. of three experiments; for SI Values Promastigotes: SI = IC50 (mouse fibroblast) ÷ IC50 (promastigotes)
Method: Approximately 5×10^5 promastigotes/ml of L. donovani Khartum strain were inoculated into Yeager's Liver infusion tryptose (YLIT) medium or Brain Heart Infusion (BHI) broth (Difco), supplemented with glucose (2.5 mg/ml), 50 U/ml Pen-Strep and 0.005 mM Hemin at 25-26° C. and subcultured bi-weekly, Mikus et al., Parasitol Int., 48(3):265-9 (2000) (Mikus and Steverding, 2000).
The Leishmanicidal properties of fifteen naphthoquinone compounds (FIG. 1) on L. donovani promastigotes proliferation were assessed by the resazurin cell viability assay. Promastigotes from axenic culture were harvested during the exponential phase of growth (at least 5-day old culture), incubated at a concentration of 2×10^5 cells/200 μl with and without dilutions of compounds in 96-well microtitre plates. Dilutions of compounds covering 0.03 μM to 44 μM were prepared. […] 20 μl Alamar Blue (12.5 mg resazurin dissolved in 100 ml distilled water (Sigma #R7017)) (Mikes and Steverding, 2000) were added to each well and plates were incubated for another 2 hrs. […] Decrease in fluorescence (inhibition), were expressed as percentage of the fluorescence of control cultures and were plotted against the concentrations of compounds. The IC50 values were calculated from the sigmoidal inhibition curves.

serum IgG = assay: Seroprevalence of L. donovani-specific serum IgG (ELISA) in infected BALB/c mice; assay type: in vivo; conditions: serum 14 days post-infection
Method: To make L. donovani crude antigens, L. donovani promastigotes and amastigotes were counted using a hemocytometer, spun at 800×g for 10 min, and washed three times with 1× phosphate buffered saline (PBS). After the final wash, parasites were resuspended in 1×PBS at a concentration of 1×10^8 promastigotes (amastigotes)/ml and lysed by 5 freeze and thaw cycles or by sonication at maximum speed for 5 cycles of 10 seconds with cooling, and frozen at −80° C. until needed for assay (Burns et al., 1993; Zijlstra et al., 1998). Protein concentration was determined by the BIORAD assay.
5 μg/ml of antigen in 100 mM carbonate-bicarbonate buffer […], were added to the wells of a 96 well polyvinyl plate (100 μl/well) and incubated at room temperature for 1 hr or overnight at 4° C. Wells were emptied, blocking buffer was added (200 μl/well), and wells were incubated at room temperature for 1 hr. Wells were emptied and 50 or 100 μl/well of diluted samples added (5× mice serum), and incubated for 1.5-2 hrs. Plates were washed 4× and an anti-mouse-IgG was diluted 1:500, and added (100 μl/well); these plates were incubated for 30 min in the dark and secondary antibody tagged to HRP was added at a dilution of 1:500. TMB-HRP developer was added 100 μl/well for 30 min in the dark and plates were read at 630 nm on a spectrophotometer (Zijlstra et al., 1998).
The purpose of the test was to confirm positive infectivity through levels of serum IgG in infected BALB/c mice. A high serum IgG level is predictive of an infection with visceral leishmaniasis. The results are expressed as percent increase or percent decrease in IgG levels. Four compounds with three different concentrations each were used for the tests.
Serum levels of IgG in infected but untreated mice increased by 20.36% compared to that of uninfected mice. […] Specific-parasite IgG antibodies produced by BALB/c mice inoculated with 10^6 infective concentrations of Leishmania donovani. Mice (n=2 per group) were infected subcutaneously at the base of their tail with log phase promastigotes. […] Serum from mice was obtained fourteen days post-infection and tested individually by ELISA to determine the specific levels of L. donovani IgG. Bars indicate the mean±S.E. (Standard Error) from two mice.

[2] = In vivo cytotoxic assessment: serum AST and ALT in VL BALB/c mice; conditions: compared with uninfected negative controls
Method: Serum was collected from infected, treated and non-treated mice 14 days post infection and 7 days from the start of treatment for the determination of alanine amino transferase (ALT) and aspartate amino transferase (AST) activities. Assays were done in 96 well microtiter plates and samples and standards were run in duplicates or triplicates. For ALT, 2 μl of serum from infected treated and untreated samples were incubated with 10 μl of ALT substrate solution (1.78 g DL-alanine and 30 mg α-keto glutarate in 20 ml of phosphate buffer containing 1.25 ml of 0.4 M NaOH. Volume made up to 100 ml with buffer, pH 7.4. 1 ml of chloroform as preservative. Stable for 2 months at 2-8° C.), mixed and incubated at 37° C. for 30 minutes. 10 μl of dinitrophenolhydrazine (2,4 DNPH) was added. Blanks (ddH2O) and negative (not infected) samples were then added. Samples were mixed and incubated at room temperature for 20 minutes. 100 μl of 0.4 M NaOH was added, mixed and incubated at room temperature for 5 min. Plates were read at 490 nm. For AST, 2 μl of test and positive (infected, treated and untreated) samples were incubated with 10 μl of AST substrate solution (2.66 g DL-aspartic acid and 30 mg α-keto glutarate in 20.5 ml of 1 M NaOH pH 7.4, volume made up to 100 ml with phosphate buffer. 1 ml of chloroform was added as preservative. This was stable for 2 months at 2-8° C.) and incubated at 37° C. for 1 hr. 10 μl of 2,4 DNPH added and mixed. 2 μl of negative controls (not infected) and blanks (ddH2O) added and mixed and then incubated at room temperature for 20 min. 100 μl of 0.4 M NaOH was added, mixed and incubated at room temperature for 5 min and read at 490 nm. The enzyme activity was determined from the standard curve drawn using sodium pyruvate as standard solution (2 mM/ml pyruvate). Enzyme activities were expressed as units/ml. Reference ranges by this method are: AST; 0.096-3.8 U/ml and ALT; 0.112-3.0 U/ml. (Mallick et al., 2003; Reitman and Frankel, 1957).
In order to assess in vivo cytotoxicity of four naphthoquinone compounds (IMDNQ4, IMD8, IMDNQ 10, and IMDNQ 15), serum aspartate aminotransferase (AST), and alanine aminotransferase (ALT) levels were analyzed and compared to those in untreated controls. The assay range for AST is 0.096-3.8 U/ml (mean assay range is 1.95 U/ml) and for ALT assay, 0.112-3.0 U/ml (mean assay range is 1.56 U/ml). The results are expressed as percent increase or decrease in AST or ALT levels.

[3] = test system: NIH 3T3 BALB/c mouse fibroblast cell line; assay: Cytotoxic assessment on NIH 3T3 BALB/c mouse fibroblasts (resazurin assay); conditions: for cytotoxicity compared with Amphotericin B: Balb/C 3T3 mouse fibroblast cell line, FIG. 2; for IC50: read-out: IC50 (μM) Fibroblasts, NIH 3T3 BALB/c mouse fibroblasts, 48 hrs, resazurin assay, means ± S.E.
Method: Fibroblasts cells (4×10^4 cells/nil and adding 100 μl per well) were incubated with different concentrations of the naphthoquinone compounds (FIGS. 1) (3, 7, 13, 29, 33, and 44 μM) for 48 hrs after which viability of live fibroblast cells was determined by the Resazurin Method using a microplate reader (Bio-Tek Instruments EL311).
NIH 3T3 mouse fibroblasts were maintained in Roswell Park Memorial Institute (RPMI) medium supplemented with 10% Fetal calf serum, 50 units/ml penicillin, 50 units/ml streptomycin B in a humidified incubator at 37° C. in the presence of 5% CO2 (Scala et al., 2010).
Assays were performed to assess the cytotoxicity of these compounds in 96-well microtiter plates, with each well containing 100 μl of RPMI medium supplemented with 10% bovine calf scrum with 50 U/ml Pen-Strep. The cells were plated at a concentration of 4×10^3 cells/well (4×10^4 cells/ml). Fibroblast cells were then incubated with compounds for 48 hrs and inspected under an inverted microscope to assure growth of the controls and sterile conditions. 10 μl of resazurin solution (12.5 mg resazurin dissolved in 100 nil distilled water) were added to each well and the plates were incubated for another 2 hrs. The plates were read with a microplate reader at 570 nm. Experiments were done at least 3 times in triplicates (Scala et al., 2010).
Cell viability was determined using Resazurin Assay. The IC50 values were calculated and expressed as means±S.E (standard error).

[4] = Leishmania donovani, read-out: IC50 (μM) Promastigotes, L. donovani promastigotes

Structure (SMILES) | IC50 [1, 4] | SI Values Promastigotes [1] | IC50 ([1]; read-out: IC50 (μM) Promastigotes, L. donovani promastigotes) | IgG Increase (%) (serum IgG; 5 mg/kg) | IgG Increase (%) (serum IgG; 20 mg/kg) | IgG Increase (%) (serum IgG; 50 mg/kg) | Serum ALT Increase (%) ([2]; 5 mg/kg) | Serum AST Increase (%) ([2]; 5 mg/kg) | Serum ALT Increase (%) ([2]; 20 mg/kg) | Serum AST Increase (%) ([2]; 20 mg/kg) | Serum ALT Increase (%) ([2]; 50 mg/kg) | Serum AST Increase (%) ([2]; 50 mg/kg) | cytotoxicity compared with Amphotericin B [3] | IC50 [3] | melting point
NC1=C(Br)C(=O)c2ccccc2C1=O [IMD8, 2-Amino-3-bromo-1,4-naphthoquinone] | 4.3 µM | 3301.71±321.1 and 3301.71 | 4.4 ± 0.4 µM | 20.94% | 28.66% | 23.16% | 100% | 82.69% | 100% | 87.48% and 85.17% | 100% | 85.65% and 82.69% | far less cytotoxic than Amphotericin B | – | –
C[C@@H]1[C@H](O)[C@@H](C)/C=C/C=C/C=C/C=C/C=C/C=C/C=C/[C@H](O[C@@H]2O[C@H](C)[C@@H](O)[C@H](N)[C@@H]2O)C[C@@H]2O[C@](O)(C[C@@H](O)C[C@@H](O)[C@H](O)CC[C@@H](O)C[C@@H](O)CC(=O)O[C@H]1C)C[C@H](O)[C@H]2C(=O)O [Am. B., Amphotericin B, reference compound] | – | – | – | – | 24.74% | – | – | – | 100% | 88.05% | – | – | – | 1.18 µM | –
O=C1C(Cl)=C(N(C(=O)c2cccc(Cl)c2)C(=O)c2cccc(Cl)c2)C(=O)c2ccccc21 [IMDNQ4, 3-Chloro-N-(3-chlorobenzoyl)-N-(3-chloro-1,4-dioxo-1,4-dihydronaphthalen-2-yl)-benzamide] | 6.81 µM | 24.65±12.51 and 24.65 | – | 11.34% | 6.81% | 26.76% | 100% | 87.40% | 100% | 87.48% | 100% | 85.65% | far less cytotoxic than Amphotericin B | 168 µM | 258 to 260 °C
CCCC(=O)N(C(=O)CCC)C1=C(Cl)C(=O)c2ccccc2C1=O [IMDNQ15] | – | 61250.00±438 and 61250.00 | – | 21.79% | 14.12% | 30.70% | 100% | 87.95% | 100% | 90.34% | 100% | 91.91% | – | 2.94 µM | –
